Here are results for 80 molecules from the METLIN SMRT retention time set (Domingo-Almenara et al. 2019).

The series can be described thus: gradient 5% acetonitrile 3 min, to 50% in 2 min, to 85% in 15 min, held 3 min, 100 µL/min. As to conditions: column: Zorbax Extend-C18 2.1 x 50 mm; eluents: water / acetonitrile, 0.1% formic acid. The method, boiled down:
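Data were gathered over 3 months by HPLC coupled to a quadrupole time-of-flight mass spectrometer, operated in positive and negative ionization mode. Mixtures of ~100 pure standards ran on a Zorbax Extend-C18 column (2.1 × 50 mm, 1.8 μm) at 100 μL/min, with water and acetonitrile each containing 0.1% formic acid and dead and dwell volumes of 40 μL and 900 μL. Retention time was read from adduct peaks picked by computer and checked manually.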
For the molecule `CN(C)c1cc(C(=O)NC2CC2)c2ccccc2n1`, the RP-LC retention time is 565 s.
To `Cc1ccc(Sc2nccnc2N2CCC(C(=O)NCC3CCCO3)CC2)cc1` (stereo not given) belongs 814 s; to `COc1nc2ccccc2nc1N1CCCC(C(=O)Nc2ccc(Br)cc2)C1` (stereo not given), 1250 s.
To `Cc1cccc(NC(=O)NCC(O)Cc2ccccc2)c1` (stereo not given) belongs 734 s; to `COCCN(Cc1cccs1)C(=O)c1nnn(-c2ccccc2)c1-c1ccccn1`, 824 s; to `O=C(Cc1ccccc1Cl)N1CCC2(CC1)N=C(c1ccccc1)NO2`, 841 s.
`COc1ccc(-n2nc3c(N4CCCC(C(=O)NCCc5ccco5)C4)nnc(C)c3c2C)cc1` (stereo not given): the RP-LC retention time was determined as 712 s.
To `O=C(NC1CC1)c1n[nH]c2c1CCCC2` belongs 636 s; to `Cc1cc(=O)c2c(C)ccc(C)c2[nH]1`, 677 s.
Take `CN(CC1CCOC1)C(=O)c1ccc(F)cc1F` (stereo not given): the RP-LC retention time is 683 s.
The value for `Cc1ccc(CNC(=O)C2CCN(C(=O)c3nn(C)c4c3CN(C(=O)C(C)C)CC4)CC2)cc1` was 702 s; that for `Cc1nn2c(CNC(=O)c3ccc(F)cc3)c(-c3ccccc3)nc2s1` was 840 s; that for `Cc1noc(C)c1S(=O)(=O)N1CCC(CC(=O)NCCc2c[nH]c3ccccc23)CC1` was 816 s.
To `Cc1ccc(S(=O)(=O)N2CCn3c(nnc3C3CCN(C(C)C)C3)C2)c(C)c1` (stereo not given) belongs 616 s; to `COc1cc(OC)cc(C(=O)N2CCC3(CC2)NC(=O)c2ccccc2N3C)c1`, 734 s.
As to `Cc1nc(-c2cc(S(=O)(=O)Nc3ccc(Br)cc3)c(C)s2)cs1`, the RP-LC retention time is 1070 s.
Turning to `COc1ccc(N2CC(C(=O)N3CC4CC3C(=O)O4)CC2=O)cc1` (stereo not given), the RP-LC retention time worked out at 598 s.
For `Cc1ccc(CN2C(=O)NC3(CCN(C(=O)c4sccc4C)CC3)C2=O)cc1`, the RP-LC retention time was determined as 825 s.
The value for `O=C(Cn1cc(-c2ccccc2)c2ncn(C3CC3)c(=O)c21)Nc1ccc2c(c1)OCO2` was 826 s; that for `CCc1nc2ccccc2c(=O)n1Cc1noc(-c2ccc(C#N)cc2)n1` was 919 s; that for `COc1cccc(OC)c1C(=O)N1CCCC1c1c(C)noc1C` (stereo not given) was 665 s.
The value for `CC(=O)Nc1ccc(S(=O)(=O)N2CCc3c(c(-c4nnc(-c5ccc(F)cc5)o4)nn3C)C2)cc1` was 783 s; that for `O=C(CN1CCCCC1c1nc(-c2ccc(F)cc2)no1)NCc1ccc(F)cc1` (stereo not given) was 1080 s; that for `CCN(CC)c1ncc(NC(=O)c2ccc(Br)cc2)cc1C(=O)O` was 692 s.
To `COc1ccc([N+](=O)[O-])cc1NC(=O)N(C)Cc1ccco1` belongs 922 s; to `O=C(NCc1ccccc1)c1c(O)c2cccnc2n(Cc2ccccc2)c1=O`, 1370 s.
On to `COCc1nc(-c2ccc(OC3CCN(Cc4ccc(C(F)(F)F)cc4)C3)cc2)no1` (stereo not given), for which the RP-LC retention time is 751 s.
The value for `COCCN1C(=O)c2ccccc2C(C(=O)NCCCN2CCCCC2)C1c1cccs1` (stereo not given) was 612 s; that for `CCn1c(=O)c2ccn(CC(=O)NCc3ccc(SC)cc3)c2n(CC)c1=O` was 744 s; that for `Cn1cc(CN2CCC(C(=O)N3CCCC3)CC2)c2cc(Cl)ccc21` was 631 s.
The value for `CC(=O)c1ccc(NC(=O)C(C)Oc2cc(-c3ccccc3)c3c(C)nn(C)c3n2)cc1` (stereo not given) was 990 s.
`CCCNC(=O)c1cc2sc(CC)cc2n1C` had an RP-LC retention time of 951 s.
The value for `CC(=O)c1cccc(NC(=O)CN2C(=O)CC(c3ccccc3)=Nc3cccnc32)c1` was 854 s; that for `CCC1CN2C=Nc3oc(C)c(C(=O)NCc4ccccc4Cl)c3C2=N1` (stereo not given) was 681 s; that for `Cc1cc(Cl)ccc1S(=O)(=O)N1C[C@@H](F)C[C@H]1C(=O)N1CCCCC1` was 948 s.
The value for `CCCCCOC(=O)Nc1nc(=O)n(C2OC(C)C(O)C2O)cc1F` (stereo not given) was 874 s.
To `CCc1nc(-c2csc(S(=O)(=O)N3CCCC(C(=O)Nc4ccc(OC)cc4)C3)c2)no1` (stereo not given) belongs 917 s.
The molecule `O=C1c2ccccc2C(=O)c2c(NCCc3ccc(O)cc3)ccc(NCCc3ccc(O)cc3)c21` yielded an RP-LC retention time of 1180 s.
The value for `Cc1cccc(NC(=O)Cn2cnc3onc(C)c3c2=O)c1C` was 754 s; that for `CCc1nc(NC(=O)C2CC(=O)N(c3n[nH]c4cccc(F)c34)C2)sc1C` (stereo not given) was 740 s; that for `O=C(Nc1ncc([N+](=O)[O-])s1)c1ccc([N+](=O)[O-])c(Cl)c1` was 946 s.
The value for `O=C(Cc1cccc(C(F)(F)F)c1)N1CCc2nc[nH]c2C1` was 612 s; that for `Cc1ccc(NC(=O)C2CCN(C(=O)c3ncn4c3COC(c3ccc(F)cc3)C4)CC2)cc1` (stereo not given) was 804 s.
Molecule `COc1ccc(NC(=O)N2C[C@@H](F)C[C@H]2C(=O)N2CCCCC2)cc1` had an RP-LC retention time of 664 s.
To `CCc1nnc(-c2ccc3ccn(CC(=O)N4CCN(c5cccc(Cl)c5)CC4)c3c2)o1` belongs 987 s.
In the case of `CCCCOc1ccc(-c2ccc(=O)n(Cc3nc(-c4ccc(F)cc4)no3)n2)cc1`, the RP-LC retention time was 1290 s.
For `COCC(=O)Nc1ccc(N2CCN(C3CCCCC3)CC2)cc1C(=O)O`, the RP-LC retention time was determined as 603 s.
`O=C(Cc1cccc(F)c1)N1CCC(n2nc(-c3ccsc3)ccc2=O)CC1` showed an RP-LC retention time of 812 s.
To `CCc1nnc(-c2ccc3ccn(CC(=O)Nc4ccc5c(c4)OCO5)c3c2)o1` belongs 794 s.
In turn, `COC(=O)C(C)NC(=O)NCc1cccn1Cc1ccccc1C` (stereo not given) displayed an RP-LC retention time of 821 s.
The value for `Cc1cc(C)cc(N2CCC(N)C2=O)c1` (stereo not given) was 605 s; that for `Cc1cc2c(cc(C(=O)NCCc3ccccc3)n2C)s1` was 1040 s; that for `O=C(NCC1CC(=O)N(c2ccc3c(c2)OCO3)C1)c1ccccc1F` (stereo not given) was 664 s.
The value for `CN1C(=O)c2cc(C(=O)NCc3ccccc3Br)nn2CC1(C)C(=O)NC1CCCC1` (stereo not given) was 828 s; that for `CCn1cc(S(=O)(=O)N2CCCn3nc(-c4cccs4)cc3C2)cn1` was 816 s; that for `O=C(NCc1csc(-c2ccccc2)n1)C1CCN(S(=O)(=O)c2cccc(F)c2)CC1` was 912 s.
The value for `O=C(Cc1ccccc1Cl)Nc1cc(N2CCOCC2)ncn1` was 635 s; that for `Fc1ccc(C(OCCN2CCN(C/C=C/c3ccccc3)CC2)c2ccc(F)cc2)cc1` was 916 s; that for `O=c1c(=O)n(-c2ccccc2)ccn1Cc1nc(-c2cccc(Br)c2)no1` was 885 s.
`Cc1oc2ccn(Cc3ccc(F)cc3)c(=O)c2c1C(=O)NCC1CCCO1` (stereo not given) gave an RP-LC retention time of 870 s.
For the molecule `O=C(COc1cccc(C(F)(F)F)c1)NCCCn1nc(-c2ccncc2)ccc1=O`, the RP-LC retention time is 601 s.
The value for `COC1C(=O)N(c2cccc(F)c2)C12CCN(S(=O)(=O)c1cccs1)CC2` (stereo not given) was 937 s; that for `Cc1cc2n(n1)CCCN2C(=O)CCC(=O)N1CCc2ccccc2C1` was 699 s.
To `CC(C)n1c(N2CCN(C(=O)Cc3c[nH]c4ccccc34)CC2)cc(=O)n(C(C)C)c1=O` belongs 824 s; to `CCOc1ccc(-c2csc(Cc3nc(-c4cccc(C)c4)no3)n2)cc1`, 1310 s; to `CCc1cccc(-n2nnnc2N2CCN(C(=O)Nc3ccc(C)c(F)c3)CC2)c1`, 981 s.
To `CN1C(=O)C(CC(=O)N2CCCCCC2)Sc2ncccc21` (stereo not given) belongs 705 s; to `CCC(=O)N1CCC(c2noc(CO)n2)C1` (stereo not given), 545 s.
For the molecule `COc1cc(NC(=O)C2CCN(C(=O)C3Sc4ccccc4NC3=O)CC2)cc(OC)c1OC` (stereo not given), the RP-LC retention time turned out to be 707 s.
`Cc1cc(N2CCN(C)CC2)nc2ccc(NC(=S)NCc3ccc(F)cc3)cc12` gave an RP-LC retention time of 599 s.
To `CCCNC(=O)N1CC(Oc2cccc(-c3nc(C)no3)c2)C1` belongs 730 s; to `N#Cc1ccc(NC(=O)C(=O)c2ccc[nH]2)cc1`, 801 s.
The value for `CS(=O)(=O)Nc1ccc(Cc2noc(-c3ccc4[nH]cc(CCN)c4c3)n2)cc1` was 686 s; that for `O=C(Nc1cnc(N2CCCC2)c(C(=O)O)c1)c1ccc(Cl)cc1` was 631 s; that for `O=C1[C@H]2CN(Cc3ccc(F)c(Cl)c3)C[C@H]2C(=O)N1Cc1ccc2c(c1)OCO2` was 853 s.
To `O=C(Cn1ccnc1-c1ccnc(N2CCCCC2)c1)NC1CCCCC1` belongs 624 s; to `O=C(NCc1cccc(Br)c1)C1CCCN(c2nccnc2Sc2ccccc2)C1` (stereo not given), 1130 s.
As to `CCOC(=O)c1cc(C2CC2)nc2c1c(=O)n(Cc1ccc(F)cc1Cl)c(=O)n2C`, the RP-LC retention time was determined as 855 s.
The value for `Cc1ccc(-c2csc(-n3nc(C)c(CC(=O)N4CCCCCC4)c3C)n2)cc1` was 1270 s; that for `O=C(O)c1cnc(NCc2cccnc2)nc1-c1ccc(Cl)cc1` was 606 s.
